# Test results from patent US6214821A, “Methods and composition for the inhibition of cancer cells” (Washington State University Research Foundation, priority 1999, dated 2001).
# Like-named read-outs stand apart in the source and are kept apart here.
# Columns and labels:
# [1] = test system: normal bovine venular endothelial cells (BVEC); test: cells; conditions: Bos taurus, Endothelial cell, 24 h, read-out: dose inhibiting growth by 50% (CPT alone)
# [2] = test system: MDA-231 cells; test: Flow cytometric cell cycle analysis (propidium iodide); format: cell-based, human; conditions: 100 nM CPT, 24 h
# [3] = test system: MDA-231 cells; conditions: cited from earlier work
# [4] = test system: GI 101A cells; test: Flow cytometric cell cycle analysis (propidium iodide); format: cell-based, human; conditions: 100 nM CPT, 24 h
# [5] = test system: CPT-sensitive cells; conditions: very high doses of CPT; cited from earlier work
# [6] = test system: CPT-resistant cells; conditions: low doses of CPT; cited from earlier work
# [7] = test system: normal endothelial cells (BVEC); test: Flow cytometric cell cycle analysis (propidium iodide); format: cell-based, bovine; conditions: 100 nM CPT, 24 h
# [8] = test system: GI 101A cells; conditions: cited from earlier work
# [9] = in vivo; conditions: rat, iv, 10 mg/kg
# [10] = test system: p34^cdc2 in HeLa cells; conditions: CPT treatment; cited from earlier work
# [11] = test system: MDA-231 cells; test: cells; format: cell-based, human; conditions: Homo sapiens
# From the text: (§1) . Cell lines and Culture.
# (§2) Drugs and Chemical Reagents. […] . […] All other chemicals were reagent grade.
# (§3) Drug Treatment and Survival Curves.
# (§4) Pharmacol. 28:370-376 (1991). […] .
# (§5) Drug Combinations and Data Analysis. […] . Pharmacol. (in press, 1997). […] Enzyme Regul. […] Enzyme Regul. 22:27-55 (1984).
# (§6) . […] Enzyme Regul. 22:27-55 (1984).
# [12] = test system: GI 101A cells; test: cells; format: cell-based, human; conditions: Homo sapiens, 24 h
# From the text: as §1, §2, §3, §4, §5, §6
# [13] = basic side-chain at position 9 forms salts with acids; cited from earlier work
# [14] = test system: MDA-231 cells; test: FACS cell cycle / BrdU DNA synthesis assay; format: cell-based, human; conditions: TPT 10, 50, 100 nM, 24 h, FIG. 8A
# [15] = test system: MDA-231 cells; test: ELISA BrdU incorporation assay (DNA synthesis); format: cell-based, human; conditions: TPT 10 and 50 nM, 24 hr
# [16] = test system: HMEC (p53+); test: Crystal violet staining growth inhibition assay, median effect analysis; conditions: Homo sapiens, 24 h, read-out: IC50 HMEC (p53+)
# [17] = test system: murine bone marrow cells (CFU-GM); test: In vitro bone marrow cell protection assay (CFU-GM colonies); format: cell-based, C57/BL mice; conditions: Mus musculus, 0-1000 nM, combination 1:1 molar ratio
# [18] = test system: MDA-231 (mutant p53); test: Crystal violet staining growth inhibition assay, median effect analysis; conditions: Homo sapiens, MDA-MB-231, 24 h, read-out: IC50 MDA-231 (p53-)
# [19] = test system: HMEC/E6 (p53-); test: as above; format: cell-based; conditions: Homo sapiens, 24 hr treatment
# From the text: Cytotoxicity and Bromodeoxyuridine incorporation assays. […] Enzyme Regul.
# [20] = test system: DNA damage-dependent G2 -checkpoint; conditions: cited from earlier work
structure (smiles),measurement,setting,value
"CC[C@@]1(O)C(=O)OCc2c1cc1n(c2=O)Cc2cc3ccccc3nc2-1 [CPT, Camptothecin]",IC50,[1],> 1000 nM
same,cell cycle effect of CPT alone,[2],caused an arrest of tumor as well as normal cells in S phase
same,cell cycle effect of CPT at low and high doses,[3],in the G2 phase while at high doses cells are arrested in the S phase
same,cell cycle effect of CPT alone,[4],caused an arrest of tumor as well as normal cells in S phase
same,3H-thymidine incorporation,[5],continued to incorporate ^3 H-thymidine
same,3H-thymidine incorporation,[6],stopped incorporating ^3 H-thymidine
same,cell cycle effect of CPT alone,[7],caused an arrest of tumor as well as normal cells in S phase
same,cell cycle effect of CPT at low and high doses,[8],in the G2 phase while at high doses cells are arrested in the S phase
same,half-life,[9]; in vivo,1.42 h
same,p34cdc2 activity,[10],loss in activity of p34^cdc2 in HeLa cells
same,IC50,"[11]; MDA-MB-231, 24 h, read-out: 50% inhibition of cell growth (CPT alone)",200 nM
same,IC50,"[11]; MDA-MB-231, 24 h, read-out: median-effect dose, Dm, for CPT",28 nM
same,IC50,"[11]; MDA-MB-231, read-out: IC50 of CPT in the absence of UCN-01 (so in the source)",5 nM
same,IC50,[12]; read-out: 50% inhibition of cell growth (CPT alone),300 nM
same,IC50,"[12]; read-out: median-effect dose, Dm, for CPT",104 nM
"CC[C@@]1(O)C(=O)OCc2c1cc1n(c2=O)Cc2cc3c(CN(C)C)c(O)ccc3nc2-1 [TPT, (S)-10[(dimethylamino)methyl]-4-ethyl-4,9-dihydroxy-IH-pyrano[3',4': 6,7]ind olizino[1,2-b]quinolone-3,14(4H,12H)-dione]",water solubility,[13],water-soluble
same,cell cycle effect of TPT by itself,[14],induced an accumulation of MDA-231 cells in S phase
same,BrdU incorporation,[15],stopped incorporating BrdU
same,IC50,[16],6 nM
same,IC50,[17],19 nM
same,IC50,[18],37 nM
same,IC50,[19],34 nM
same,half-life,[9]; plasma,1.53 h
Cn1c(=O)c2c(ncn2C)n(C)c1=O [caffeine],effect on DNA damage-dependent G2 checkpoint,[20],override the DNA damage-dependent G2 -checkpoint and enhance drug-induced cytotoxicity
